Structures can show the parent of a compound that is named as a salt. Where two headings read alike, the source gives them in different places.
Experiments:
dog OCT2 = test: Uptake in HEK293 cells stably overexpressing dog OCT2; type: in vitro ADME; settings: for vmax ± SEM, dOCT2 / Km at 2 min: OCT2-mediated uptake, HEK293, 2 min; for vmax ± SEM, dOCT2: 37 °C, pH 7.4, control cells subtracted; for Km at 2 min: dog, Michaelis–Menten fit, read-out: KM ± SEM, dOCT2; for CLint ± SEM, dOCT2: intrinsic clearance = vmax divided by KM for each experiment
Description: (§1) Cells were passaged twice a week.
(§2) Intracellular substrate concentrations were quantified using LC-MS/MS.

human OCT1 = target: T1, human OCT1 (Homo sapiens, UniProt O15245); test: Uptake in HEK293 cells stably overexpressing human OCT1; type: in vitro ADME
T1 construct: expressed in transfected cells; host or cells: HEK293 (Flp-In system)
T1 sequence (O15245 1-554): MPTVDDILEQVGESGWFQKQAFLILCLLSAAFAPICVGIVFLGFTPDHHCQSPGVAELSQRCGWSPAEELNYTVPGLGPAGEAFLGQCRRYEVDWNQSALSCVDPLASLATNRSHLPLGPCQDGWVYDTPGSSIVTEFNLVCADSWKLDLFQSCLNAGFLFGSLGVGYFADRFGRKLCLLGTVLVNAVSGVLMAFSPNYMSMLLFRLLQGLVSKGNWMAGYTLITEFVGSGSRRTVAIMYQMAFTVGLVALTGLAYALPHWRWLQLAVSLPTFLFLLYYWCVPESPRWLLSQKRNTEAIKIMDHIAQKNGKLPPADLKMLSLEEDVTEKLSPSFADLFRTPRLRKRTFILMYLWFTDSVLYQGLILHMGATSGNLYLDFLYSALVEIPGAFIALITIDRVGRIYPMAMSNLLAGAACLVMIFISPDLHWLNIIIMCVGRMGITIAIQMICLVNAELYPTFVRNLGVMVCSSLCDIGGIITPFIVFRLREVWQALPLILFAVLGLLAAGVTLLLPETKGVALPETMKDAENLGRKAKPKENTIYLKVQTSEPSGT
Description: as §1, §2

mouse OCT1 = target: T2, mouse OCT1 (Mus musculus, UniProt O08966); test: Uptake in HEK293 cells stably overexpressing mouse OCT1; type: in vitro ADME; settings: intrinsic clearance = vmax divided by KM for each experiment
T2 construct: expressed in transfected cells; host or cells: HEK293 (Flp-In system)
T2 sequence (O08966 1-556): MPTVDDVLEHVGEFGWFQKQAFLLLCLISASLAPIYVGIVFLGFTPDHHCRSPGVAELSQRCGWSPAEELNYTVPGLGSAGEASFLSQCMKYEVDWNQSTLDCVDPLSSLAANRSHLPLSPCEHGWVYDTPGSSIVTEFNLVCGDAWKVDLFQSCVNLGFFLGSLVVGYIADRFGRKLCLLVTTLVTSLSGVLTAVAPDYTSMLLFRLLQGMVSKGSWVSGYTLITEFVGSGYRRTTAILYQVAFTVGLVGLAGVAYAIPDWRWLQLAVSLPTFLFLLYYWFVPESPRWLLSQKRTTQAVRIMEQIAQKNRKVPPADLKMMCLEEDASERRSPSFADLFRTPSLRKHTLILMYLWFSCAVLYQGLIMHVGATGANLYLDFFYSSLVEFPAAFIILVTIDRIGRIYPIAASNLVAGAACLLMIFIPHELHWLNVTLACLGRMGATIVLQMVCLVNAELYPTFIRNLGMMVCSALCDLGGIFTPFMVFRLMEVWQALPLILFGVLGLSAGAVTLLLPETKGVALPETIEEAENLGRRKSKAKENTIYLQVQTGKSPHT
Description: as §1, §2

human OCT2 = target: T3, human OCT2 (Homo sapiens, UniProt O15244); test: Uptake in HEK293 cells stably overexpressing human OCT2; type: in vitro ADME; settings: for CLint ± SEM, hOCT2: intrinsic clearance = vmax divided by KM for each experiment
T3 construct: expressed in transfected cells; host or cells: HEK293 (Flp-In system)
T3 sequence (O15244 1-555): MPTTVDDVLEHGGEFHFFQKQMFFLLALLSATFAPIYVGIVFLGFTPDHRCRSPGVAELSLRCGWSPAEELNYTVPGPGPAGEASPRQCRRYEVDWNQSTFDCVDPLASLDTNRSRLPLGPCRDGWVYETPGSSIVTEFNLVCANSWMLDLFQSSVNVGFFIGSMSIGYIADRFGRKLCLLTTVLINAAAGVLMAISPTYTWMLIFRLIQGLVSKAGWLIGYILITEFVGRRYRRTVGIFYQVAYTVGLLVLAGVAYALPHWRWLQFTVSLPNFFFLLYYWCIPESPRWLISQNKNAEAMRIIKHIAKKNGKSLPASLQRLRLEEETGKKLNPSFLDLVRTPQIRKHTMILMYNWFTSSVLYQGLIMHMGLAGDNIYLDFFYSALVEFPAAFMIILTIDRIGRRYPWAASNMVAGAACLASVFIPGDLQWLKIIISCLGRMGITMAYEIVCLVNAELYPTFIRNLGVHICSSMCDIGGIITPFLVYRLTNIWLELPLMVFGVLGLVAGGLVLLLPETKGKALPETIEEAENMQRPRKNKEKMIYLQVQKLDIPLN
Description: as §1, §2

dog OCT1 = test: Uptake in HEK293 cells stably overexpressing dog OCT1; settings: for vmax ± SEM, dOCT1: OCT1-mediated uptake, HEK293, 2 min, 37 °C, pH 7.4, control cells subtracted; for Km at 2 min: dog; for CLint ± SEM, dOCT1: intrinsic clearance = vmax divided by KM for each experiment
Experimental: The total uptake is shown for the overexpressing and control cells (left hand side). OCT1-mediated uptake (right hand side) was calculated by subtracting the uptake of control cells (pcDNA5) from the uptake of OCT1-overexpressing cells. The means and standard errors of the means are shown for at least three independent experiments.
For generation and characterization, see the Supplementary Methods, Figure S7, and [29, 47]. Cells were cultured in Dulbecco’s Modified Eagle’s Medium (DMEM) supplemented with 10% FBS, 100 U/mL penicillin, and 100 µg/mL streptomycin at 37 °C and 5% CO2. Cells were passaged twice a week.
At 48 h prior to the experiment, 6 × 10^5 cells were seeded per well in 12-well plates pre-coated with poly-D-lysine.
Cellular uptake experiments were performed at 37 °C and pH 7.4 using Hanks’ Buffered Salt Solution (HBSS) supplemented with 10 mM HEPES (referred to as HBSS+ in the following). Cells were washed with 1 mL pre-warmed (37 °C) HBSS+ and uptake was initiated by adding 400 µL of pre-warmed HBSS+ containing the substrate. Uptake was allowed for exactly 2 min and stopped by adding 2 mL ice-cold HBSS+. Cells were washed twice with 2 mL ice-cold HBSS+ then lysed with 80% acetonitrile supplemented with internal standard. The intracellularly accumulated substrate concentrations were measured using LC-MS/MS as described in the following and normalized to the amount of total protein in the samples as measured using the bicinchoninic acid assay.
Intracellular substrate concentrations were quantified using LC-MS/MS. […] The pellet was reconstituted with 200 µL 0.1% formic acid and between 5 and 10 µL was injected into the LC-MS/MS system (Table S2).
An API4000 QTRAP tandem mass spectrometer with ESI interface (AB SCIEX, Darmstadt, Germany) coupled to a Shimadzu Nexera X2 UHPLC system with LC 30AD pumps and SiL 30AC autosampler (Shimadzu, Duisburg, Germany) was used for analysis.
Intrinsic clearance CLint was calculated by dividing vmax by KM for each experiment. Kinetic parameters were compared between OCT1 orthologs using an ANOVA followed by Tukey’s honestly significant difference post hoc comparisons in SPSS Statistics version 28 (SPSS Inc., IBM, Chicago, IL, USA).

[1] = substrate: CC(Cc1ccc(O)cc1)NCC(O)c1cc(O)cc(O)c1; test: cells, lysate or membranes named; settings: other: OCT1-mediated uptake, HEK293, 2 min, Michaelis–Menten fit; pH 7.4
[2] = substrate: CCCC[N+]1(C)[C@@H]2C[C@@H](OC(=O)[C@H](CO)c3ccccc3)C[C@H]1[C@@H]1O[C@@H]12; test: Uptake in HEK293 cells stably overexpressing human OCT1; type: in vitro ADME; settings: other: OCT1-mediated uptake, HEK293, 2 min, Michaelis–Menten fit; pH 7.4
Experimental: (§3) Cellular uptake experiments were performed at 37 °C and pH 7.4 using Hanks’ Buffered Salt Solution (HBSS) supplemented with 10 mM HEPES (referred to as HBSS+ in the following). Cells were washed with 1 mL pre-warmed (37 °C) HBSS+ and uptake was initiated by adding 400 µL of pre-warmed HBSS+ containing the substrate. Uptake was allowed for exactly 2 min and stopped by adding 2 mL ice-cold HBSS+. Cells were washed twice with 2 mL ice-cold HBSS+ then lysed with 80% acetonitrile supplemented with internal standard. The intracellularly accumulated substrate concentrations were measured using LC-MS/MS as described in the following and normalized to the amount of total protein in the samples as measured using the bicinchoninic acid assay [49].

[3] = substrate: O=C(O[C@H]1C[C@H]2CC[C@@H](C1)[N+]21CCCC1)C(O)(c1ccccc1)c1ccccc1; test: as above; type: in vitro ADME; settings: other: OCT1-mediated uptake, HEK293, 2 min, Michaelis–Menten fit; pH 7.4
Experimental: as §3

CN(C)C(=N)N=C(N)N [Metformin, metformin hydrochloride]
vmax ± SEM, dOCT2 (dog OCT2): 21,578 ± 606 pmol × min^−1 × mg Protein^−1 | Km at 2 min (dog OCT2; HEK293 cells stably overexpressing dog OCT2, pH 7.4): 365 ± 11.5 µM | CLint ± SEM, dOCT2 (dog OCT2): 59.2 ± 2.76 µL × min^−1 × mg Protein^−1 | vmax ± SEM, hOCT1 (human OCT1; OCT1-mediated uptake, HEK293, 2 min, 37 °C, pH 7.4, control cells subtracted): 10,465 ± 1306 pmol × min^−1 × mg Protein^−1 | Km at 2 min (human OCT1; human, HEK293 cells stably overexpressing human OCT1, pH 7.4, OCT1-mediated uptake, HEK293, 2 min, Michaelis–Menten fit, read-out: KM ± SEM, hOCT1): 1090 ± 297 µM | CLint ± SEM, mOCT1 (mouse OCT1): 38.7 ± 6.23 µL × min^−1 × mg Protein^−1 | vmax ± SEM, hOCT2 (human OCT2; OCT2-mediated uptake, HEK293, 2 min, 37 °C, pH 7.4, control cells subtracted): 29,650 ± 1457 pmol × min^−1 × mg Protein^−1 | Km at 2 min (human OCT2; human, HEK293 cells stably overexpressing human OCT2, pH 7.4, OCT2-mediated uptake, HEK293, 2 min, Michaelis–Menten fit, read-out: KM ± SEM, hOCT2): 766 ± 95.4 µM | CLint ± SEM, hOCT2 (human OCT2): 39.9 ± 5.27 µL × min^−1 × mg Protein^−1 | vmax ± SEM, dOCT1 (dog OCT1): 11,373 ± 714 pmol × min^−1 × mg Protein^−1 | Km at 2 min (dog OCT1; HEK293 cells stably overexpressing dog OCT1, pH 7.4): 204 ± 41.8 µM | CLint ± SEM, dOCT1 (dog OCT1): 63.1 ± 12.0 µL × min^−1 × mg Protein^−1

O=C(O[C@H]1C[C@H]2CC[C@@H](C1)[N+]21CCCC1)C(O)(c1ccccc1)c1ccccc1 [Trospium, trospium chloride]
vmax ± SEM, dOCT2 (dog OCT2): 224 ± 14.6 pmol × min^−1 × mg Protein^−1 | fold lower affinity by dog OCT2 than human OCT2 (dog OCT2; dog OCT2 versus human OCT2): 5.7 fold | Km at 2 min (dog OCT2; pH 7.4): 2.18 ± 0.27 µM | CLint ± SEM, dOCT2 (dog OCT2): 106 ± 8.78 µL × min^−1 × mg Protein^−1 | CLint ± SEM, hOCT1 (human OCT1; intrinsic clearance = vmax divided by KM for each experiment): 117 ± 12.7 µL × min^−1 × mg Protein^−1 | CLint ± SEM, mOCT1 (mouse OCT1): 180 ± 37.5 µL × min^−1 × mg Protein^−1 | CLint ± SEM, hOCT2 (human OCT2): 278 ± 40.5 µL × min^−1 × mg Protein^−1 | vmax ± SEM, dOCT1 (dog OCT1): 835 ± 64.9 pmol × min^−1 × mg Protein^−1 | fold higher transport capacity by dog than mouse OCT1 (dog OCT1; dog OCT1 versus mouse OCT1): 3.4 fold | fold lower affinity by dog than mouse OCT1 (dog OCT1; dog OCT1 versus mouse OCT1): 4.4 fold | Km at 2 min (dog OCT1; pH 7.4): 5.72 ± 0.3 µM | CLint ± SEM, dOCT1 (dog OCT1): 146 ± 10.3 µL × min^−1 × mg Protein^−1

B1: human OCT1 (Homo sapiens) (protein)
chain: MPTVDDILEQVGESGWFQKQAFLILCLLSAAFAPICVGIVFLGFTPDHHCQSPGVAELSQRCGWSPAEELNYTVPGLGPAGEAFLGQCRRYEVDWNQSALSCVDPLASLATNRSHLPLGPCQDGWVYDTPGSSIVTEFNLVCADSWKLDLFQSCLNAGFLFGSLGVGYFADRFGRKLCLLGTVLVNAVSGVLMAFSPNYMSMLLFRLLQGLVSKGNWMAGYTLITEFVGSGSRRTVAIMYQMAFTVGLVALTGLAYALPHWRWLQLAVSLPTFLFLLYYWCVPESPRWLLSQKRNTEAIKIMDHIAQKNGKLPPADLKMLSLEEDVTEKLSPSFADLFRTPRLRKRTFILMYLWFTDSVLYQGLILHMGATSGNLYLDFLYSALVEIPGAFIALITIDRVGRIYPMAMSNLLAGAACLVMIFISPDLHWLNIIIMCVGRMGITIAIQMICLVNAELYPTFVRNLGVMVCSSLCDIGGIITPFIVFRLREVWQALPLILFAVLGLLAAGVTLLLPETKGVALPETMKDAENLGRKAKPKENTIYLKVQTSEPSGT
notes: expressed in transfected cells; host or cells: HEK293 (Flp-In system)
Km [1]: 1.19 ± 0.09 µM | Km [2]: 15.0 ± 1.67 µM | Vmax [2]: 0.00125 µmol/min/mg | Vmax/Km [2]: 84.4 µL/min/mg | Km [3]: 13.3 ± 1.58 µM | Vmax [3]: 0.0015 µmol/min/mg | Vmax/Km [3]: 117 µL/min/mg

Reference: paper PMC9102066, “Cloning and Functional Characterization of Dog OCT1 and OCT2: Another Step in Exploring Species Differences in Organic Cation Transporters” (International Journal of Molecular Sciences, 2022)
